From US12091411B2, “IRAK degraders and uses thereof” (Kymera Therapeutics, Inc., priority 2022, dated 2024)
Where two headings read alike, the source gives them in different places.

Molecular target: T1, IRAK4 (Homo sapiens, UniProt Q9NWZ3)
T1 construct: Degradation of IRAK4 in OCI-LY10 was quantitatively measured using Meso Scale Discovery technology; endogenous in cells; host or cells: OCI-LY10
T1 sequence (Q9NWZ3 1-460): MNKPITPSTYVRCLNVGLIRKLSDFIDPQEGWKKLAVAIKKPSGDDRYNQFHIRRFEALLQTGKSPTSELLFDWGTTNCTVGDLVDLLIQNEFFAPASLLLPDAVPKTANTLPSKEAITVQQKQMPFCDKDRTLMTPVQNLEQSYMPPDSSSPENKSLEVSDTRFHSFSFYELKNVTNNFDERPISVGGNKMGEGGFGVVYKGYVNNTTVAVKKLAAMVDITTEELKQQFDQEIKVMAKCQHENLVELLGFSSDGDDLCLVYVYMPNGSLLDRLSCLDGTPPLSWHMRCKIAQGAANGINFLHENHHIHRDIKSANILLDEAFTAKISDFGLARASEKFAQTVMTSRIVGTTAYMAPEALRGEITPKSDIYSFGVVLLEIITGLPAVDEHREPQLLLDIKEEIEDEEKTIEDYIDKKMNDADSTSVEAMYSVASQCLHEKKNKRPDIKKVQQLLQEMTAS
Assay: IRAK4 MSD Degradation in OCI-LY10
Format: cell-based
Details: OCI-LY10 cells, MSD
Summary of the method: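 DC50, from a three-parameter logistic fit and reported as letter bins A (<0.01 μM), B, C, D (>0.2 μM or not tested), reflects IRAK4 loss measured by MSD electrochemiluminescence in OCI-LY10 lysates. Treatment: 8 doses, 1:3 steps, top 1 to 10 μM, 4 to 24 h, 37 °C.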

[1] = 4 hrs incubation, read-out: IRAK4 degradation in OCI-LY10 at 4 hrs: DC50
[2] = 24 hrs incubation, read-out: IRAK4 degradation in OCI-LY10 at 24 hrs: DC50

DC50 [1] | DC50 [2] | SMILES
> 200 nM | > 200 nM | CN1CC2(CCN(c3ccn4ncc(C(=O)Nc5cn([C@H]6CC[C@H](CN7CCN(CC#Cc8cccc9c8n(C)c(=O)n9C8CCC(=O)NC8=O)CC7)CC6)nc5C(F)F)c4n3)CC2)C1 (some centres unmarked) [I-297]
> 200 nM | > 200 nM | Cn1c(=O)n(C2CCC(=O)NC2=O)c2cccc(C#CCN3CCN(CC4CCC(n5cc(NC(=O)c6cnn7ccc(N8CC9CC8CO9)nc67)c(C(F)F)n5)CC4)CC3)c21 (centres unmarked) [I-108]
> 200 nM | > 200 nM | Cn1c(=O)n(C2CCC(=O)NC2=O)c2cccc(C#CCN3CCN(C[C@H]4CC[C@H](n5cc(NC(=O)c6cnn7ccc(N8C[C@H]9C[C@@H]8CO9)nc67)c(F)n5)CC4)CC3)c21 (some centres unmarked) [I-281]
> 200 nM | > 200 nM | Cn1c(=O)n(C2CCC(=O)NC2=O)c2cccc(C#CCN3CCN(C[C@H]4CC[C@H](n5cc(NC(=O)c6cnn7cc(N8CCCCC8)cnc67)c(C(F)F)n5)CC4)CC3)c21 (some centres unmarked) [I-233]
> 200 nM | < 10 nM | Cn1c(=O)n(C2CCC(=O)NC2=O)c2cccc(C#CCO[C@@H]3CCN(C[C@H]4CC[C@H](n5cc(NC(=O)c6cnn7ccc(N8CCS(=O)(=O)CC8)nc67)c(C(F)F)n5)CC4)C[C@H]3F)c21 (some centres unmarked) [I-715]
10 to 100 nM | > 200 nM | Cn1c(=O)n(C2CCC(=O)NC2=O)c2cccc(C#CCN3CCN(C[C@H]4CC[C@H](n5cc(NC(=O)c6cnn7ccc(C8CCOC8)nc67)c(C(F)F)n5)CC4)CC3)c21 (some centres unmarked) [I-426]
> 200 nM | 10 to 100 nM | Cc1ccc(-c2nn([C@H]3CC[C@H](CN4CCN(CC#Cc5cccc6c5n(C)c(=O)n6C5CCC(=O)NC5=O)CC4)CC3)cc2NC(=O)c2cnn3cccnc23)nc1 (some centres unmarked) [I-122]
> 200 nM | < 10 nM | Cn1c(=O)n(C2CCC(=O)NC2=O)c2cccc(C#CCOC3CCN(C[C@H]4CC[C@H](n5cc(NC(=O)c6cnn7ccc(C8CCOCC8)nc67)c(C(F)F)n5)CC4)CC3)c21 (some centres unmarked) [I-307]

More lines, now with the values behind:

SMILES | DC50 [1] | DC50 [2]
Cn1c(=O)n(C2CCC(=O)NC2=O)c2cccc(C3CCN(CC4COC5(C4)CN(C[C@H]4CC[C@H](n6cc7cc(NC(=O)c8cccc(C(F)(F)F)n8)c(C(C)(C)O)cc7n6)CC4)C5)CC3)c21 (some centres unmarked) [I-667] | > 200 nM | > 200 nM
O=C1CCC(c2cncc3c(C#CCOC4CCN(C[C@H]5CC[C@H](n6cc(NC(=O)c7cnn8ccc(N9C[C@H]%10C[C@@H]9CO%10)nc78)c(C(F)F)n6)CC5)CC4)cccc23)C(=O)N1 (some centres unmarked) [I-249] | > 200 nM | > 200 nM
CN(c1cccc2c1n(C)c(=O)n2C1CCC(=O)NC1=O)C1CN(C[C@H]2CC[C@H](n3cc(NC(=O)c4cnn5ccc(N6C[C@H]7C[C@@H]6CO7)nc45)c(C(F)F)n3)CC2)C1 (some centres unmarked) [I-697] | > 200 nM | < 10 nM
CC(C)(O)c1cc2nn([C@H]3CC[C@H](CNCCCNc4cccc5c4C(=O)N(C4CCC(=O)NC4=O)C5=O)CC3)cc2cc1NC(=O)c1cccc(C(F)(F)F)n1 (some centres unmarked) [I-146] | > 200 nM | 10 to 100 nM
Cn1c(=O)n(C2CCC(=O)NC2=O)c2cccc(C3CN([C@H]4CCN(C[C@H]5CC[C@H](n6cc7cc(NC(=O)c8cccc(C(F)(F)F)n8)ccc7n6)CC5)C[C@@H]4F)C3)c21 (some centres unmarked) [I-671] | > 200 nM | < 10 nM
O=C1CCN(c2cncc3cc(C#CCOC4CCN(C[C@H]5CC[C@H](n6cc(NC(=O)c7cnn8ccc(N9C[C@H]%10C[C@@H]9CO%10)nc78)c(C(F)F)n6)CC5)CC4)ccc23)C(=O)N1 [I-11] | > 200 nM | > 200 nM
[2H]C([2H])([2H])Oc1ccc2c(c1C1CCN(C[C@H]3CC[C@H](n4cc5cc(NC(=O)c6cccc(C(F)(F)F)n6)ncc5n4)CC3)CC1)n(C([2H])([2H])[2H])c(=O)n2C1CCC(=O)NC1=O (some centres unmarked) [I-432] | > 200 nM | < 10 nM
Cn1c(=O)n(C2CCC(=O)NC2=O)c2cccc(C#CCOC3CCN(C[C@H]4CC[C@H](c5ccc(NC(=O)c6cnn7ccc(N8C[C@H]9C[C@@H]8CO9)nc67)c(C(F)F)n5)CC4)CC3)c21 (some centres unmarked) [I-181] | > 200 nM | > 200 nM
